Source: patent US20080262228A1, “Metabolites of 5-fluoro-8- quinoline and methods of preparation and uses thereof” (Wyeth, priority 2006, published 2008)
Several values for one entry are separate records, joined by “and”; a condition that tells them apart may be missing. Equal entries are not always repeated. Marks after values point to notes of the source that are not given here.

Test: In vivo metabolism of [14C]COMPOUND I in Sprague-Dawley rats, single oral 5 mg/kg dose
Set-up: species or system rat
Details: 5 mg/kg oral
Method: Dose preparation, animal dosing, and specimen collection were performed at Wyeth Research, Collegeville, Pa. The vehicle contained 2% (w/v) polysorbate 80, NF and 0.5% (w/v) methylcellulose (4000 cps) in water. [^14C]COMPOUND I trisuccinate salt (36.6 mg) and non-labeled COMPOUND I trisuccinate salt (26.7 mg) were dissolved in 1 mL of ethanol and suspended in 35 mL of the vehicle with stirring. The target [^14C]COMPOUND I concentration was approximately 1 mg/mL as free base and 70 μCi/mL with a target specific activity of 70 μCi/mg. Three pre- and post-dose aliquots (100 μL) were taken for the determination of radiochemical purity, drug and radioactivity concentrations and specific activity (see below).
Male rats weighing from 323 to 354 g and female rats weighing from 270 to 317 g at the time of dosing were purchased from Charles River Laboratories (Wilmington, Mass.). Non-fasted rats were given a single 5 mg/kg (˜350 μCi/kg) dose of [^14C]COMPOUND I at a volume of 5.0 mL/kg via intragastric gavage. Three rats were dosed for each time point. Animals were provided Purina rat chow and water ad libitum, and were kept individually in metabolism cages.
Blood samples were collected at 1, 3, 6 and 24 hr from male rats and at 1 and 3 hr from female rats after dose administration by cardiac puncture into tubes containing EDTA as the anticoagulant and placing them on ice. Triplicate aliquots (50 μL) of whole blood were removed and plasma was immediately obtained from the remaining blood by centrifugation at 4° C. Whole brain samples were collected after saline perfusion at 1, 3, 6 and 24 hr post-dose from male rats and at 1 and 3 hr post-dose from female rats. Urine samples were collected on dry ice from male rats at intervals of 0-6 and 6-24 hr post-dose. Feces were collected from male rats at 0-24 hr post-dose at room temperature. The biological specimens and aliquots of the dose suspension were stored at approximately −70° C. until analysis.
Triplicate aliquots of diluted dose (20 μL), dose fractions (10 μL), and plasma (50 μL) and urine (100 μL) from individual rats were analyzed for radioactivity concentrations. Radioactivity determinations were made with a Tri-Carb Model 3100 TR liquid scintillation counter (LSC) (Perkin Elmer) using 5 mL of Ultima Gold as the scintillation fluid.
Brain and fecal samples from individual rats were weighed and homogenized in water at a volume-to-weight ratio of about 3:1 and 5:1, respectively, with a Polytron PT homogenizer at ice-cold temperature. Duplicate aliquots of blood (50 μL), brain homogenates (0.2 g) and fecal homogenates (0.2 g) were placed on Combusto-cones with Combusto-pads and allowed to dry overnight. Samples were combusted with a model 307 Tri-Carb Sample Oxidizer, equipped with an Oximate-80 Robotic Automatic Sampler (Perkin Elmer). The liberated ^14CO2 was trapped with Carbo-Sorb E carbon dioxide absorber, mixed with PermaFluor® E^+ liquid scintillation cocktail, and counted in a Tri-Carb Model 3100 TR/LL liquid scintillation counter (Perkin Elmer).
Plasma samples were pooled by equal volumes from three animals at each time point (1, 3, 6 and 24 hr for males; 1 and 3 hr for females). Aliquots of 2 mL of pooled plasma were mixed with 2 mL of acetonitrile, placed on ice for about 10 min, and then centrifuged at 4° C. The supernatant was transferred to a clean tube. The protein pellets were extracted two more times with 4 mL of acetonitrile. The supernatants from precipitation and extraction of each sample were pooled, mixed, and evaporated at 22° C. under nitrogen in a TurboVap LV evaporator (Caliper Life Sciences, Hopkinton, Mass.) to about 1.0 mL. The concentrated extract was centrifuged, the supernatant volume measured and the extraction efficiency was determined by analyzing duplicate 10 μL aliquots for radioactivity concentrations.

[1] = female rats, 1 hr, individual rats, 5 mg/kg
[2] = female rats, 1 hr, mean ± SD, 5 mg/kg
[3] = female rats, 3 hr, individual rats, 5 mg/kg
[4] = female rats, 3 hr, mean ± SD, 5 mg/kg
[5] = male rats, 1 hr, individual rats, 5 mg/kg
[6] = male rats, 1 hr, mean ± SD, 5 mg/kg
[7] = male rats, 3 hr, individual rats, 5 mg/kg
[8] = male rats, 3 hr, mean ± SD, 5 mg/kg
[9] = male rats, 6 hr, individual rats, 5 mg/kg
[10] = male rats, 6 hr, mean ± SD, 5 mg/kg
[11] = male rats, 24 hr, individual rats, 5 mg/kg
[12] = male rats, 24 hr, mean ± SD, 5 mg/kg

For `COc1cc(N2CCN(C3CCN(c4ccc(F)c5cccnc45)CC3)CC2)c2ncccc2c1` [[^14C]COMPOUND I, [piperazine-^14C(U)]-5-fluoro-8-(4-(4-(6-methoxyquinolin-8-yl)piperazin-1-yl)piperidin-1-yl)quinoline trisuccinate], which “Concentration of Total Radioactivity in Plasma” value (shortened to “Concentration … in Plasma”) [1] is on record?
The value was 1274 ng equivalents/mL and 854 ng equivalents/mL and 383 ng equivalents/mL.

And the “Concentration of Total Radioactivity in Whole Blood” value (shortened to “Concentration … in Whole Blood”) [1]?
Its value is 815 ng equivalents/mL and 549 ng equivalents/mL and 536 ng equivalents/mL.

What about the “Brain Radioactivity Concentrations” value (female rats, 1 hr, individual, 5 mg/kg) of the same compound?
Its value is 149 ng equivalents/g and 121 ng equivalents/g and 128 ng equivalents/g.

And the “Concentration … in Whole Blood” value (female rats, 1 hr, mean ± SD)?
Its value is 633 ± 157 ng equivalents/mL.

What about the “Brain Radioactivity Concentrations” value [2] of the same compound?
The value was 133 ng equivalents/g and 133 ± 15 ng equivalents/g.

And the “Concentration … in Plasma” value [2]?
The value was 837 ng equivalents/mL and 837 ± 446 ng equivalents/mL.

What about the “Concentration … in Plasma” value [3] of the same compound?
Its value is 504 ng equivalents/mL and 298 ng equivalents/mL and 436 ng equivalents/mL.

What about the “Concentration … in Whole Blood” value [3] of the same compound?
The value was 326 ng equivalents/mL and 206 ng equivalents/mL and 287 ng equivalents/mL.

And the “Brain Radioactivity Concentrations” value (female rats, 3 hr, individual, 5 mg/kg)?
Its value is 54 ng equivalents/g and 30 ng equivalents/g and 61 ng equivalents/g.

And the “Concentration … in Whole Blood” value (female rats, 3 hr, mean ± SD)?
Its value is 273 ± 61.2 ng equivalents/mL.

What about the “Brain Radioactivity Concentrations” value [4] of the same compound?
Its value is 49 ng equivalents/g and 49 ± 16 ng equivalents/g.

And the “Concentration … in Plasma” value [4]?
Its value is 412 ng equivalents/mL and 412 ± 105 ng equivalents/mL.

What about the “dose excreted in urine” value (male rats, 0-24 hr urine) of the same compound?
Its value is 3.6%.

And the “Concentration … in Plasma” value [5]?
The value was 366 ng equivalents/mL and 295 ng equivalents/mL and 887 ng equivalents/mL.

What about the “Concentration … in Whole Blood” value [5] of the same compound?
Its value is 228 ng equivalents/mL and 169 ng equivalents/mL and 251 ng equivalents/mL.

What about the “Brain Radioactivity Concentrations” value (male rats, 1 hr, individual, 5 mg/kg) of the same compound?
The value was 48 ng equivalents/g and 42 ng equivalents/g and 63 ng equivalents/g.

What about the “Concentration … in Whole Blood” value (male rats, 1 hr, mean ± SD) of the same compound?
The value was 216 ± 42.3^a ng equivalents/mL.

What about the “Brain Radioactivity Concentrations” value [6] of the same compound?
The value was 51 ng equivalents/g and 51 ± 11^c ng equivalents/g.

What about the “Concentration … in Plasma” value [6] of the same compound?
The value was 516 ng equivalents/mL and 516 ± 323 ng equivalents/mL.

And the “Concentration … in Plasma” value [7]?
Its value is 172 ng equivalents/mL and 256 ng equivalents/mL and 144 ng equivalents/mL.

What about the “Concentration … in Whole Blood” value [7] of the same compound?
The value was 115 ng equivalents/mL and 166 ng equivalents/mL and 98.6 ng equivalents/mL.

And the “Brain Radioactivity Concentrations” value (male rats, 3 hr, individual, 5 mg/kg)?
The value was 22 ng equivalents/g and 31 ng equivalents/g and 23 ng equivalents/g.

And the “Concentration … in Whole Blood” value (male rats, 3 hr, mean ± SD)?
The value was 127 ± 35.1^a ng equivalents/mL.

What about the “Brain Radioactivity Concentrations” value [8] of the same compound?
The value was 25 ng equivalents/g and 25 ± 4.9 ng equivalents/g.

What about the “Concentration … in Plasma” value [8] of the same compound?
Its value is 191 ng equivalents/mL and 191 ± 58.3^a ng equivalents/mL.

And the “Concentration … in Plasma” value [9]?
The value was 112 ng equivalents/mL and 114 ng equivalents/mL and 163 ng equivalents/mL.

What about the “Concentration … in Whole Blood” value [9] of the same compound?
Its value is 77.2 ng equivalents/mL and 75.5 ng equivalents/mL and 118 ng equivalents/mL.

What about the “Brain Radioactivity Concentrations” value (male rats, 6 hr, individual, 5 mg/kg) of the same compound?
Its value is 15 ng equivalents/g and 13 ng equivalents/g and 19 ng equivalents/g.

And the “Concentration … in Whole Blood” value (male rats, 6 hr, mean ± SD)?
Its value is 90.2 ± 24.1 ng equivalents/mL.

What about the “Brain Radioactivity Concentrations” value [10] of the same compound?
The value was 16 ng equivalents/g and 16 ± 3.2 ng equivalents/g.

And the “Concentration … in Plasma” value [10]?
The value was 130 ng equivalents/mL and 130 ± 28.9 ng equivalents/mL.

What about the “Concentration … in Plasma” value [11] of the same compound?
The value was 23.3 ng equivalents/mL and 24.2 ng equivalents/mL and 26.7 ng equivalents/mL.

And the “Concentration … in Whole Blood” value [11]?
Its value is 22.8 ng equivalents/mL and 26.2 ng equivalents/mL and 28.0 ng equivalents/mL.

And the “Brain Radioactivity Concentrations” value (male rats, 24 hr, individual, 5 mg/kg)?
The value was 7.1 ng equivalents/g and 5.3 ng equivalents/g and 6.1 ng equivalents/g.

What about the “Concentration … in Whole Blood” value (male rats, 24 hr, mean ± SD) of the same compound?
Its value is 25.7 ± 2.64 ng equivalents/mL.

What about the “Brain Radioactivity Concentrations” value [12] of the same compound?
The value was 6.2 ng equivalents/g and 6.2 ± 0.9 ng equivalents/g.

And the “Concentration … in Plasma” value [12]?
Its value is 24.7 ng equivalents/mL and 24.7 ± 1.76 ng equivalents/mL.

What about the “administered radioactivity recovered in feces” value (male rats, first 24 hr, average) of the same compound?
The value was 81.9%.
